Measurements from patent US10329307B2, “Heterocyclic compounds as inhibitors of platelet aggregation” (UNIVERSITE DE MONTREAL, priority 2015, dated 2019).

molecular target: PAR4 (Homo sapiens (Human), UniProt Q96RI0); test: FLIPR assay in PAR4-expressing HEK293 cells (PAR4 antagonist activity); assay type: cell-based; conditions: H-Ala-Phe(4-F)-Pro-Gly-Trp-Leu-Val-Lys-Asn-Gly-NH2-induced intracellular calcium mobilization, 11-point curves
From the text: The FLIPR assay is an exemplary in vitro assay for measuring the activity of the PAR4 antagonists of the present invention. In this assay, intracellular calcium mobilization is induced in PAR4 expressing cells by a PAR4 agonist and calcium mobilization is monitored. See, e.g., Example A.
HEK293 cells stably expressing PAR4 were generated by a standard method of transfection of human […] cDNA expression vector or by RAGE technology from Athersys Inc. (Cleveland, Ohio) and selected based on PAR4 protein expression of mRNA expression. […] These cells express endogenous PAR1 and can elicit calcium signal upon stimulation with PAR1 agonist peptide. Cells were grown in Dulbecco's Modified Eagle's Medium (DMEM) (Invitrogen, Carlsbad, Calif.), 10% FBS, 1% PSG, 3 μg/ml puromycin and 25 nM Methotrexate) at 37° C. with 5% CO2.
FLIPR-based calcium mobilization assay in HEK293 cells was used to measure PAR4 antagonism, agonism, and selectivity against PAR1. […] Counter screens for agonist activity and PAR1 antagonist activity were also performed. Briefly, PAR1/PAR4-expressing HEK293 cells were grown in DMEM (Life Technology, Grand Island, N.Y.) containing 10% heat-inactivated FBS, 1% Penicillin-Streptomycin, 10 μg/mL blasticidin, and 100 μg/mL Zeocin at 37° C. with 5% CO2. Cells were plated overnight prior to the experiment in a black 384-well Purecoat Amine clear bottom plate (Becton Dickinson Biosciences, San Jose, Calif.) at 10,000 cells/well in 30 μL growth medium and incubated in a humidified chamber at 37° C. with 5% CO2 overnight. Prior to compound addition, the cell medium was replaced with 40 μL of 1× calcium and magnesium-containing Hank's Balanced Saline Solution (HBSS) (with 20 mM HEPES) and 1:1000 diluted fluorescent calcium indicator (Codex Biosolutions, Gaithersburg, Md.). After a 30 minute incubation period at 37° C. and a further 30 minute incubation and equilibration period at room temperature, 20 μL test compound (diluted in 1×HBSS buffer) was added at various concentrations at 0.17% dimethyl sulfoxide (DMSO) final concentration. Changes in fluorescence intensity were measured using a Functional Drug Screening System (FDSS, Hamamatsu, Japan) to determine agonist activities. The cells were then incubated for 30 minutes at room temperature followed by addition of 20 μL of agonist peptide for antagonist activity measurement. […] Compound potency was derived from 11-point concentration-response curves.
As indicated above, the FLIPR assay, an in vitro assay, measures the PAR4 antagonist activity of compounds tested as described in Example A.

PAR4, sequence (Q96RI0 18-385): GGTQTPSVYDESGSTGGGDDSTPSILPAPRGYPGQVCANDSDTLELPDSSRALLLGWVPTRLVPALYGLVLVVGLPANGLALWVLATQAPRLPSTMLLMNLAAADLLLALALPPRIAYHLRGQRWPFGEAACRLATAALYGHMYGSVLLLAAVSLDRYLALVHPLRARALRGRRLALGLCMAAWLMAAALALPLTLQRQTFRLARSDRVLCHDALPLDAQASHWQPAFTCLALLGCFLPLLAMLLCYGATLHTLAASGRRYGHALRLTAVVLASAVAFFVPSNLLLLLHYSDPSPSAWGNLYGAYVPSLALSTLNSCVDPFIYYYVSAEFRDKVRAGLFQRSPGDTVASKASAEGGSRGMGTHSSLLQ

Compound | IC50 [nM]
COc1cc(OCC2CCCCN2c2ccc(Cl)cc2)c2cc(-c3cn4nc(OC)sc4n3)oc2c1 (single isomer, unassigned) [Example 56] | 920
COc1cc(OCC2CCCN(c3ccc(Cl)cn3)C2)c2cc(-c3cn4nc(OC)sc4n3)oc2c1 (single isomer, unassigned) [Example 65] | 1000
COc1cc(OC[C@H]2CCCN2c2ccc(C#N)cc2)c2cc(-c3cn4nc(OC)sc4n3)oc2c1 [Example 1, (R)-4-(2-(((6-methoxy-2-(2-methoxyimidazo[2,1-b][1,3,4]thiadiazol-6-yl)benzofuran-4-yl)oxy)methyl)pyrrolidin-1-yl)benzonitrile] | 420
COc1cc(OC[C@H]2CCCN2C2CCOCC2)c2cc(-c3cn4nc(OC)sc4n3)oc2c1 [Example 2, (R)-2-methoxy-6-(6-methoxy-4-((1-(tetrahydro-2H-pyran-4-yl)pyrrolidin-2-yl)methoxy)benzofuran-2-yl)imidazo[2,1-b][1,3,4]thiadiazole] | 9400
COc1ccc(N2CCN(C(=O)OC(C)(C)C)CC2COc2cc(OC)cc3oc(-c4cn5nc(C)ccc5n4)cc23)cc1 (centres unmarked) [Example 3, tert-butyl 3-(((6-methoxy-2-(6-methylimidazo[1,2-b]pyridazin-2-yl)benzofuran-4-yl)oxy)methyl)-4-(4-methoxyphenyl)piperazine-1-carboxylate] | 1200
COc1ccc(N2CCNCC2COc2cc(OC)cc3oc(-c4cn5nc(C)ccc5n4)cc23)cc1 (centres unmarked) [Example 4, 2-(6-methoxy-4-((1-(4-methoxyphenyl)piperazin-2-yl)methoxy)benzofuran-2-yl)-6-methylimidazo[1,2-b]pyridazine] | 460000
COc1ccc(N2CCN(C(=O)c3ccccc3)CC2COc2cc(OC)cc3oc(-c4cn5nc(C)ccc5n4)cc23)cc1 (centres unmarked) [Example 5, (3-(((6-methoxy-2-(6-methylimidazo[1,2-b]pyridazin-2-yl)benzofuran-4-yl)oxy)methyl)-4-(4-methoxyphenyl)piperazin-1-yl)(phenyl)methanone] | 24000
COc1ccc(N2CCN(C(=O)C3CC3)CC2COc2cc(OC)cc3oc(-c4cn5nc(C)ccc5n4)cc23)cc1 (centres unmarked) [Example 6, cyclopropyl(3-(((6-methoxy-2-(6-methylimidazo[1,2-b]pyridazin-2-yl)benzofuran-4-yl)oxy)methyl)-4-(4-methoxyphenyl)piperazin-1-yl)methanone] | 15000
COc1ccc(N2CCN(CC3CC3)CC2COc2cc(OC)cc3oc(-c4cn5nc(C)ccc5n4)cc23)cc1 (centres unmarked) [Example 7, 2-(4-((4-(cyclopropylmethyl)-1-(4-methoxyphenyl)piperazin-2-yl)methoxy)-6-methoxybenzofuran-2-yl)-6-methylimidazo[1,2-b]pyridazine] | 16000
COc1cc(OCC2CCCN(S(=O)(=O)c3ccc(C)cc3)C2)c2cc(-c3cn4nc(OC)sc4n3)oc2c1 (centres unmarked) [Example 8, 2-methoxy-6-(6-methoxy-4-((1-tosylpiperidin-3-yl)methoxy)benzofuran-2-yl)imidazo[2,1-b][1,3,4]thiadiazole] | 1400
COc1cc(OC[C@H]2CCCN2c2ccc(Cl)cc2)c2cc(-c3cn4nc(OC)sc4n3)oc2c1 [Example 9] | 950
COc1ccc(N2CCC[C@@H]2COc2cc(OC)cc3oc(-c4cn5nc(OC)sc5n4)cc23)cc1 [Example 10] | 390
COc1cc(OC[C@H]2CCCN2c2ccc(F)cc2)c2cc(-c3cn4nc(OC)sc4n3)oc2c1 [Example 11] | 740
COc1cc(OC[C@H]2CCCN2c2ccc3c(c2)OCO3)c2cc(-c3cn4nc(OC)sc4n3)oc2c1 [Example 12] | 420
CCOC(=O)c1ccc(N2CCC[C@@H]2COc2cc(OC)cc3oc(-c4cn5nc(OC)sc5n4)cc23)cc1 [Example 13] | 550
COc1cc(OC[C@H]2CCC(=O)N2c2ccc(F)cc2)c2cc(-c3cn4nc(OC)sc4n3)oc2c1 [Example 14] | 12000
COc1cc(OC[C@@H]2CCCN2c2ccc(Cl)cc2)c2cc(-c3cn4nc(OC)sc4n3)oc2c1 [Example 15] | 1300
